# Measurements published in patent publication US6211182A, “Imidazole compounds substituted with a six or seven membered heterocyclic ring containing two nitrogen atoms” (Schering Corporation, priority 1999, dated 2001).
# Test system: mice
# Experiment: not given
# Settings: Yokoyama et al. 1993; cited from earlier work
Structure (SMILES),duration of each phase of convulsion,electroconvulsive threshold
S=C(NC1CCCCC1)N1CCC(c2cnc[nH]2)CC1 [thioperamide],decreased the duration of each phase of convulsion,raised the electroconvulsive threshold

# Test system: rat
# Experiment: not given
# Settings: Clapham et al. 1993; cited from earlier work
row,Structure (SMILES),short-term memory and reversal learning
1,S=C(NC1CCCCC1)N1CCC(c2cnc[nH]2)CC1 [thioperamide],can improve short-term memory and reversal learning in the rat

# Target: T1, H3 receptor (Cavia porcellus, UniProt Q9JI35)
# T1 construct: The source of the H3 receptors in this experiment was guinea pig brain; from tissue; host or cells: guinea pig brain membranes
# T1 sequence (Q9JI35 whole entry): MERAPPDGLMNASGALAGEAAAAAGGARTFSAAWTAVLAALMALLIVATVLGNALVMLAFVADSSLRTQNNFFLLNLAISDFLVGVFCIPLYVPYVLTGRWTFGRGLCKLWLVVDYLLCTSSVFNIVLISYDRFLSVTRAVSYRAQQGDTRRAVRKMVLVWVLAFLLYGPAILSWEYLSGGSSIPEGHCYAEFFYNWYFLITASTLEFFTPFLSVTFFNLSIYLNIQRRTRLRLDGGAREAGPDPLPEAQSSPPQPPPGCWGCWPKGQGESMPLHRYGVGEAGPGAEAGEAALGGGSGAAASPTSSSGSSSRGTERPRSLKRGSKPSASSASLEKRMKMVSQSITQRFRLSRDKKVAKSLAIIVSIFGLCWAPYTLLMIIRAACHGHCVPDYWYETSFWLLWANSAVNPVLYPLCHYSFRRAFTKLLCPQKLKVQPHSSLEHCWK
# Experiment: H3 Receptor Binding Assay (guinea pig brain membranes, [3H]R-α-methylhistamine or [3H]-N-methylhistamine)
# Settings: 3 nM radioligand, 30° C., 30 min
# Protocol: Procedure for H3 Receptor Binding Assay
# The source of the H3 receptors in this experiment was guinea pig brain. The animals used weighed 400-600 g. The tissue was homogenized using a Polytron in a solution of 50 mM Tris, pH 7.5. The final concentration of tissue in the homogenization buffer was 10% w/v. The homogenates were centrifuged at 1000×g for 10 min. in order to remove clumps of tissue and debris. The resulting supernatants were then centrifuged at 50,000×g for 20 min. in order to sediment the membranes, which were next washed 3 times in homogenization buffer (50,000×g for 20 min. each). The membranes were frozen and stored at -70° C. until needed.
# All compounds to be tested were dissolved in DMSO and then diluted into the binding buffer (50 mM Tris, pH 7.5) such that the final concentration was 2 μg/mL with 0.1% DMSO. Membranes were then added (400 μg of protein) to the reaction tubes. The reaction was started by the addition of 3 nM [^3 H]R-α-methylhistamine (8.8 Ci/mmol) or [^3 H]-N-methylhistamine (80 Ci/mmol) and incubated at 30° C. for 30 min. Bound ligand was separated from unbound ligand by filtration, and the amount of radioactive ligand bound to the membranes was quantitated by liquid scintillation spectrometry. All incubations were performed in duplicate and the standard error was less than 10% in all instances.
row,Structure (SMILES),Ki [nM]
1,O=C(/C=C/c1cccnc1)N1CCN(CCCCc2c[nH]cn2)CC1,25
2,O=C(NCCCCc1c[nH]cn1)C1CN(Cc2ccc(Cl)cc2)CCN1Cc1ccc(Cl)cc1 (stereo not drawn),20
3,O=C(NCCCCc1c[nH]cn1)C1CN(Cc2ccc(Cl)cc2)CCN1 (stereo not drawn),46
4,Clc1ccc(CN2CCN(Cc3ccc(Cl)cc3)C(CCc3c[nH]cn3)C2)cc1 (stereo not drawn),45
5,O=C(/C=C/c1ccccc1)N1CCN(CCCCc2c[nH]cn2)CC1,6
6,O=C(Nc1ccc(C(F)(F)F)cc1)N1CCN(CCCCc2c[nH]cn2)CC1,14
7,O=C(NCCCCCc1c[nH]cn1)C1CNCCN1 (stereo not drawn),39

# More lines, now with the values ahead:
row,Ki [nM],Structure (SMILES)
1,46,CCOC(=O)C1CN(CCCCc2c[nH]cn2)CCN1Cc1ccc(Cl)cc1 (stereo not drawn)
2,6,O=C(Nc1cccc(Cl)c1)N1CCN(CCCCc2c[nH]cn2)CC1
3,32,CCOC(=O)C1CNCCN1CCCCc1c[nH]cn1 (stereo not drawn)
4,38,O=C(NCCCCc1c[nH]cn1)C1CNCCN1Cc1ccc(Cl)cc1 (stereo not drawn)

# Same assay, conditions: unit given as mM
row,Structure (SMILES),Ki [nM]
1,CCOC(=O)C1CN(Cc2ccc(Cl)cc2)CCN1CCCCc1c[nH]cn1 (stereo not drawn),26
